Some test systems named below: BT-549; COLO 205; EKVX; HOP-92; K562; MDA-MB-231; MDA-MB-435; MOLT-4; NCI/ADR-RES; OVCAR-5; RXF 393; SF-268; SF-539; SK-MEL-5; T47D; TK-10; UACC-257; NCI-H226; SK-OV-3; SNB-75.
Common to all, as to assay: growth of human tumour cells (NCI), 48 h

Structures are written as SMILES.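 Five compound concentrations were applied to cells in 96-well plates for 48 hours; endpoints were derived by simple linear interpolation of the resulting dose-response curve. Here, GI50 denotes the concentration required for 50% inhibition of growth.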 Calls of active or inactive are those of the source. Rule as the data show it: active = GI50 up to about 1.1 µM and inactive = higher.

On to `CN(C(=O)C12C3C4(C(=O)O)C1(C(=O)N(C)C(C)(C)C)C1C2(C(=O)O)C3(C(=O)N(C)C(C)(C)C)C14C(=O)N(C)C(C)(C)C)C(C)(C)C` (stereo not drawn), for which the GI50 with BT-549, with COLO 205, in the experiment on EKVX, with HOP-92, with K562 and in the experiment on MDA-MB-231 was > 100 µM (inactive) in each case. Further, the GI50 with MDA-MB-435, in the experiment with MOLT-4, in the experiment with NCI/ADR-RES, in the experiment on OVCAR-5, with RXF 393 and in the experiment with SF-268 was > 100 µM (inactive) each time. Further, the GI50 in the experiment on SF-539, with SK-MEL-5, with T47D, in the experiment with TK-10 and in the experiment with UACC-257 was > 100 µM (inactive) in each case.
In the case of `Cc1ccc2c(c1)C(=O)/C(=C\c1ccc(Cl)cc1)CCS2(=O)=O`, the GI50 in the experiment on BT-549 is 3.8 µM (inactive); with COLO 205, 3.85 µM (inactive); with EKVX, 11.3 µM (inactive); in the experiment on HOP-92 it was 3.53 µM (inactive); in the experiment with K562, 1.42 µM (inactive); with MDA-MB-231, 3.58 µM (inactive). For the same compound, the GI50 with MDA-MB-435 was 4.35 µM (inactive); with MOLT-4 it was 1.85 µM (inactive); in the experiment on NCI-H226, 3.84 µM (inactive); in the experiment on NCI/ADR-RES, 2.18 µM (inactive); with OVCAR-5, 12.4 µM (inactive); in the experiment with SF-268, 3.12 µM (inactive). Moreover, the GI50 in the experiment on SF-539 was 2 µM (inactive); in the experiment with SK-MEL-5, 3.22 µM (inactive); in the experiment on SK-OV-3, 7.82 µM (inactive); with SNB-75 it was 3.88 µM (inactive); in the experiment on T47D it was 1.41 µM (inactive); in the experiment on TK-10 it was 2.1 µM (inactive). In addition, the GI50 in the experiment with UACC-257 was 2.65 µM (inactive).
As for `Cc1ccc(C(=O)/C=C2\Nc3cccnc3NC2=O)cc1`, the GI50 was > 100 µM (inactive) in the experiment on BT-549; > 100 µM (inactive) in the experiment on COLO 205; > 100 µM (inactive) in the experiment with EKVX; > 100 µM (inactive) with HOP-92; > 100 µM (inactive) with K562; 30.8 µM (inactive) in the experiment with MDA-MB-231. In addition, the GI50 is > 100 µM (inactive) in the experiment with MDA-MB-435; > 100 µM (inactive) in the experiment with MOLT-4; > 100 µM (inactive) with NCI-H226; > 100 µM (inactive) with NCI/ADR-RES; > 100 µM (inactive) in the experiment with OVCAR-5; 21.7 µM (inactive) in the experiment on RXF 393. Further, the GI50 with SF-268 is 55.8 µM (inactive); in the experiment with SF-539 it was 60.4 µM (inactive); with SK-MEL-5, > 100 µM (inactive); in the experiment with SK-OV-3, > 100 µM (inactive); with T47D it was > 100 µM (inactive); in the experiment with TK-10, > 100 µM (inactive). In addition, the GI50 in the experiment on UACC-257 is > 100 µM (inactive).
For `COc1cc(NCc2ccc3nc(N)nc(N)c3c2C)cc(OC)c1OC`, the GI50 with BT-549 is 0.685 µM (active); with COLO 205, 1.07 µM (active); in the experiment on HOP-92 it was 0.75 µM (active); in the experiment on K562 it was 0.038 µM (active); in the experiment with MDA-MB-231, 4.03 µM (inactive); with MDA-MB-435 it was 0.0365 µM (active). Also, the GI50 in the experiment on MOLT-4 is 0.025 µM (active); in the experiment on NCI-H226, 11.4 µM (inactive); with NCI/ADR-RES, 2.74 µM (inactive); in the experiment with OVCAR-5 it was 1.85 µM (inactive); with RXF 393 it was 2.15 µM (inactive); in the experiment on SF-268, 0.0258 µM (active). Further, the GI50 is 0.0269 µM (active) with SF-539; 0.0289 µM (active) in the experiment with SK-MEL-5; 2.84 µM (inactive) with SK-OV-3; 4.37 µM (inactive) in the experiment on SNB-75; 0.0658 µM (active) with T47D; 0.0105 µM (active) with TK-10. The GI50 in the experiment with UACC-257 was 0.14 µM (active).
As to `O=C1O[C@H]2[C@H](OC(=O)c3cc(O)c(O)c(O)c3)[C@@H](OC(=O)c3cc(O)c(O)c4c3[C@@H]3C1=CC(=O)C(O)(O)C3(O)O4)[C@H](OC(=O)c1cc(O)c(O)c(O)c1)O[C@@H]2COC(=O)c1cc(O)c(O)c(O)c1` (stereo partly drawn) [TERCHEBIN], the GI50 with BT-549 was > 100 µM (inactive); in the experiment with COLO 205 it was 39.5 µM (inactive); with EKVX it was 39.4 µM (inactive); with HOP-92, 47.8 µM (inactive); in the experiment with K562, 31.9 µM (inactive); in the experiment on MDA-MB-231, 41.9 µM (inactive). The GI50 was 38.4 µM (inactive) with MDA-MB-435; 41.9 µM (inactive) with MOLT-4; 35.7 µM (inactive) in the experiment on NCI-H226; 53.2 µM (inactive) in the experiment with NCI/ADR-RES; 65.6 µM (inactive) in the experiment with OVCAR-5; > 100 µM (inactive) with RXF 393. The GI50 is 59.3 µM (inactive) with SF-268; 75.7 µM (inactive) in the experiment with SK-MEL-5; 38.3 µM (inactive) with SK-OV-3; 49.9 µM (inactive) in the experiment on SNB-75; 54.7 µM (inactive) in the experiment on T47D; > 100 µM (inactive) with UACC-257.
On to `CC(C)=NC(C(=O)O)C(C)(C)S` (stereo not drawn), for which the GI50 in the experiment with BT-549, in the experiment with COLO 205, in the experiment with EKVX, in the experiment on HOP-92, in the experiment on K562 and with MDA-MB-231 was > 100 µM (inactive) throughout. For the same compound, the GI50 with MDA-MB-435, in the experiment on MOLT-4, in the experiment on NCI-H226, in the experiment on NCI/ADR-RES, in the experiment with OVCAR-5 and in the experiment with RXF 393 was > 100 µM (inactive) throughout. Moreover, the GI50 in the experiment with SF-268, in the experiment on SF-539, in the experiment with SK-OV-3, in the experiment on SNB-75, with T47D and in the experiment on TK-10 was > 100 µM (inactive) each time. Also, the GI50 with UACC-257 was > 100 µM (inactive).
Consider `COc1cc(O)c2c(O)c3c(=O)oc(C)cc3c(OC)c2c1` [PAEPALANTINE], for which the GI50 in the experiment on BT-549 is 34.8 µM (inactive); in the experiment on COLO 205, 19.2 µM (inactive); with EKVX it was 29.9 µM (inactive); with HOP-92, 16.1 µM (inactive); with K562, 23 µM (inactive); with MDA-MB-231, 28.4 µM (inactive). For the same compound, the GI50 with MDA-MB-435 is 18.3 µM (inactive); in the experiment on MOLT-4, 23 µM (inactive); with NCI/ADR-RES, 19.6 µM (inactive); in the experiment on OVCAR-5, 32 µM (inactive); in the experiment on RXF 393 it was 49.8 µM (inactive); in the experiment on SF-268, 34.3 µM (inactive). In addition, the GI50 with SF-539 was 21 µM (inactive); in the experiment on SK-MEL-5, 25.2 µM (inactive); in the experiment on SK-OV-3, 24.5 µM (inactive); in the experiment with T47D it was 32.4 µM (inactive); with TK-10 it was 29 µM (inactive); in the experiment with UACC-257, 31 µM (inactive).
`Nc1ccc(S(=O)(=O)Nc2nnc(S(N)(=O)=O)s2)cc1`: the GI50 with BT-549 is > 100 µM (inactive); with COLO 205 it was > 100 µM (inactive); in the experiment with EKVX it was > 100 µM (inactive); with HOP-92 it was 34.5 µM (inactive); with MDA-MB-231, > 100 µM (inactive); in the experiment on MDA-MB-435 it was > 100 µM (inactive). The GI50 in the experiment on MOLT-4 was > 100 µM (inactive); with NCI-H226, 45.4 µM (inactive); with NCI/ADR-RES it was > 100 µM (inactive); in the experiment on OVCAR-5, > 100 µM (inactive); in the experiment on RXF 393, > 100 µM (inactive); in the experiment on SF-268, > 100 µM (inactive). The GI50 in the experiment on SF-539, in the experiment on SK-OV-3, in the experiment on SNB-75, in the experiment on T47D and in the experiment with TK-10 was > 100 µM (inactive) throughout.
Turning to `O=C(Oc1cc(=O)c(OC(=O)c2ccccc2)co1)c1ccccc1`, the GI50 in the experiment with BT-549 is > 100 µM (inactive); in the experiment with COLO 205, > 100 µM (inactive); with HOP-92, > 100 µM (inactive); with MDA-MB-231 it was > 100 µM (inactive); with MDA-MB-435, > 100 µM (inactive); in the experiment on MOLT-4 it was 33.3 µM (inactive). Further, the GI50 with NCI-H226 was 85.3 µM (inactive); in the experiment with NCI/ADR-RES it was 83.2 µM (inactive); in the experiment with OVCAR-5, > 100 µM (inactive); with RXF 393, 72.9 µM (inactive); in the experiment on SF-268, 90.4 µM (inactive); in the experiment on SF-539, 46.5 µM (inactive). In addition, the GI50 was > 100 µM (inactive) with SK-MEL-5; > 100 µM (inactive) with SK-OV-3; 45.6 µM (inactive) with SNB-75; 65.3 µM (inactive) in the experiment with T47D; > 100 µM (inactive) in the experiment on TK-10; > 100 µM (inactive) in the experiment with UACC-257.
Turning to `NC(=O)N/N=C1\C[C@H]2CCCC[C@H]2C1`, the GI50 in the experiment on BT-549 is 42.7 µM (inactive); with COLO 205, > 100 µM (inactive); with EKVX it was > 100 µM (inactive); in the experiment with HOP-92, > 100 µM (inactive); with K562, > 100 µM (inactive); in the experiment with MDA-MB-231, > 100 µM (inactive). Also, the GI50 in the experiment on MDA-MB-435, in the experiment with MOLT-4, with NCI-H226, with NCI/ADR-RES, in the experiment on OVCAR-5 and in the experiment with SF-268 was > 100 µM (inactive) in each case. Besides, the GI50 with SF-539, with SK-MEL-5, with SK-OV-3, with SNB-75, in the experiment on T47D and in the experiment with TK-10 was > 100 µM (inactive) each time. In the experiment on UACC-257, the GI50 is > 100 µM (inactive).

For the origin of these results see ChEMBL document CHEMBL1201862, “PubChem BioAssay data set” (2004).
